Measurements as given in patent publication US12655173B2, “Hybrid amide derivatives of amphotericin B” (priority 2020, dated 2026).
≈ marks a conversion by molar mass, not a printed value.

How the values were obtained:
[1] = In vivo tolerance in mice: survival and distress; conditions: tail vein, 24 h
[2] = In vivo toxicity in murine model: mice alive / distress-free; conditions: 45 mg/kg IV, 24 h
Af 3626 (ATCC strain) = assay: MIC against azole and echinocandin resistant fungal strains (CLSI); assay type: cell-based; conditions: read-out: MIC Af 3626
Protocol: (§1) This experiment was performed following the standard CLSI protocol.

[3] = system: Af F12776, azole resistant (Y431C); assay: as above; assay type: cell-based; conditions: read-out: MIC Af F12776
Protocol: as §1

[4] = system: Af F14946, azole resistant (G138C); assay: as above; assay type: cell-based; conditions: read-out: MIC Af F14946
Protocol: as §1

[5] = system: Af F16134, azole resistant (M220K); assay: as above; assay type: cell-based; conditions: read-out: MIC Af F16134
Protocol: as §1

[6] = system: Af F16216, azole resistant (L98H + TR); assay: as above; assay type: cell-based; conditions: read-out: MIC Af F16216
Protocol: as §1

[7] = system: Af F7075, azole resistant (G54E); assay: as above; assay type: cell-based; conditions: read-out: MIC Af F7075
Protocol: as §1

CEA10 (clinical isolate) = assay: as above; assay type: cell-based, A. funigatus; conditions: read-out: MIC CEA10
Protocol: as §1

[8] = system: EMFR-S678P, echinocandin resistant; assay: as above; assay type: cell-based; conditions: read-out: MIC EMFR-S678P
Protocol: as §1

C[C@H](CCC(=O)O)[C@H]1CC[C@H]2[C@@H]3CC[C@@H]4C[C@H](O)CC[C@]4(C)[C@H]3C[C@H](O)[C@]12C [Deoxycholate]
Distressed ([1]; Dose 1 mg/kg): 0/4
Survival (alive/total) ([1]; Dose 1 mg/kg): 4/4
Distressed ([1]; Dose 4 mg/kg): 0/4
Survival (alive/total) ([1]; Dose 4 mg/kg): 4/4
Distressed ([1]; Dose 45 mg/kg): 0/4
Survival (alive/total) ([1]; Dose 45 mg/kg): 4/4

C[C@@H]1[C@H](O)[C@@H](C)/C=C/C=C/C=C/C=C/C=C/C=C/C=C/[C@H](O[C@@H]2O[C@H](C)[C@@H](O)[C@H](N)[C@H]2O)C[C@@H]2O[C@](O)(C[C@@H](O)C[C@@H](O)[C@H](O)CC[C@@H](O)C[C@@H](O)CC(=O)O[C@H]1C)C[C@H](O)[C@H]2C(=O)O [C2′epiAmB]
# of mice alive [2]: 4/4
# of mice distress-free [2]: 4/4

C[C@@H](c1ncncc1F)[C@](O)(Cn1cncn1)c1ccc(F)cc1F [Voriconazole]
MIC (Af 3626 (ATCC strain)): 0.72 µM (≈ 0.252 µg/mL)
MIC [3]: > 11.5 µM
MIC [4]: > 11.5 µM
MIC [5]: > 11.5 µM
MIC [6]: > 11.5 µM
MIC [7]: 5.73 µM (≈ 2 µg/mL)

CC[C@@H]([C@H](C)O)n1ncn(-c2ccc(N3CCN(c4ccc(OC[C@@H]5CO[C@@](Cn6cncn6)(c6ccc(F)cc6F)C5)cc4)CC3)cc2)c1=O [Posaconazole]
MIC (CEA10 (clinical isolate)): 0.18 µM (≈ 0.126 µg/mL)
MIC [6]: 1.43 µM (≈ 1 µg/mL)

CC[C@H](C)C[C@H](C)CCCCCCCCC(=O)N[C@H]1C[C@@H](O)[C@@H](NCCN)NC(=O)[C@@H]2[C@@H](O)CCN2C(=O)[C@H]([C@H](O)CCN)NC(=O)[C@H]([C@H](O)[C@@H](O)c2ccc(O)cc2)NC(=O)[C@@H]2C[C@@H](O)CN2C(=O)[C@H]([C@@H](C)O)NC1=O [Caspofungin]
MIC (Af 3626 (ATCC strain)): 0.41 µM (≈ 0.448 µg/mL)
MIC [5]: 0.21 µM (≈ 0.23 µg/mL)
MIC [6]: 0.41 µM (≈ 0.448 µg/mL)
MIC [7]: 0.82 µM (≈ 0.897 µg/mL)
MIC [8]: > 3.3 µM
